Laboratory results taken from patent US8835395B2, “Protein peptide hydrogels” (Kansas State University Research Foundation, priority 2010, dated 2014).
Where a SMILES comes first, the peptide text is derived from it.

Experiment: Solubility of peptide in neutral water
Assay type: physicochemical
Settings: neutral water without any pH adjustment

- Solubility in water: soluble
Compound: CC[C@H](C)[C@H](NC(=O)[C@H](CC(C)C)NC(=O)[C@@H](N)Cc1ccccc1)C(=O)N[C@H](C(=O)N[C@H](C(=O)N1CCC[C@H]1C(=O)N1CCC[C@@H]1C(=O)NCC(=O)N1CCC[C@H]1C(=O)NCC(=O)NCC(=O)N[C@@H](CC(=O)O)C(=O)NCC(=O)N1CCC[C@H]1C(=O)NCC(=O)NCC(=O)N[C@@H](CC(=O)O)C(=O)O)[C@@H](C)CC)C(C)C [h5PP^De, FLIVI-PP^D-GPGGDGPGGD] (HELM PEPTIDE1{F.L.I.V.I.P.[dP].G.P.G.G.D.G.P.G.G.D}$$$$V2.0)
